In ChEMBL document CHEMBL1201862, “PubChem BioAssay data set” (2004):
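Cultured in 96-well plates, cells were exposed to test compound for 48 hours across five concentrations. Here, GI50 denotes the concentration required for 50% inhibition of growth.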 The source made the active and inactive calls. Cut-off read from the data, not from the text of the source: active = GI50 up to about 1.1 µM and inactive = higher.

Experiments:
Assay in all cases: DTP human tumour cell line panel, 48 h
[1] = tested on: A549
[2] = tested on: UO-31
[3] = tested on: HT-29
[4] = tested on: SF-295
[5] = tested on: CAKI-1
[6] = tested on: UACC-257
[7] = tested on: COLO 205
[8] = tested on: NCI/ADR-RES
[9] = tested on: 786-0
[10] = tested on: DU-145
[11] = tested on: IGROV-1
[12] = tested on: A498
[13] = tested on: RXF 393
[14] = tested on: HCC 2998
[15] = tested on: HL-60
[16] = tested on: TK-10
[17] = tested on: HOP-92
[18] = tested on: RPMI-8226
[19] = tested on: K562
[20] = tested on: SR

| Structure (SMILES) | GI50 [1] | GI50 [2] | GI50 [3] | GI50 [4] | GI50 [5] | GI50 [6] | GI50 [7] | GI50 [8] | GI50 [9] | GI50 [10] | GI50 [11] | GI50 [12] | GI50 [13] | GI50 [14] | GI50 [15] | GI50 [16] | GI50 [17] | GI50 [18] | GI50 [19] | GI50 [20] |
| --- | --- | --- | --- | --- | --- | --- | --- | --- | --- | --- | --- | --- | --- | --- | --- | --- | --- | --- | --- | --- |
| CCCCOC(=O)C1CN2C=CC=NC2=NC1(C(F)(F)F)C(F)(F)F (centres undefined) | > 100 µM (inactive) | > 100 µM (inactive) | > 100 µM (inactive) | > 100 µM (inactive) | > 100 µM (inactive) | > 100 µM (inactive) | > 100 µM (inactive) | > 100 µM (inactive) | > 100 µM (inactive) | > 100 µM (inactive) | > 100 µM (inactive) | > 100 µM (inactive) | > 100 µM (inactive) | > 100 µM (inactive) | > 100 µM (inactive) | > 100 µM (inactive) | > 100 µM (inactive) | > 100 µM (inactive) | > 100 µM (inactive) |  |
| C[N+]1(CCCl)CC[N+](C)(CCCl)CC1 (centres undefined) | > 100 µM (inactive) | 99.5 µM (inactive) | > 100 µM (inactive) | > 100 µM (inactive) | > 100 µM (inactive) | > 100 µM (inactive) | > 100 µM (inactive) | > 100 µM (inactive) | > 100 µM (inactive) | > 100 µM (inactive) | > 100 µM (inactive) | > 100 µM (inactive) | > 100 µM (inactive) |  | 28.8 µM (inactive) | > 100 µM (inactive) |  | > 100 µM (inactive) | > 100 µM (inactive) |  |
| c1ccc(NN=C(c2ccccn2)c2ccccn2)nc1 | 0.384 µM (active) | 0.0267 µM (active) | < 0.01 µM (active) | 0.423 µM (active) | 0.0757 µM (active) | 0.187 µM (active) | < 0.01 µM (active) | 0.157 µM (active) | 0.142 µM (active) | 0.331 µM (active) | 0.0153 µM (active) | 0.447 µM (active) | 0.583 µM (active) | 2.23 µM (inactive) |  | 0.357 µM (active) | 0.488 µM (active) | 0.211 µM (active) | 0.463 µM (active) |  |
| CSCCC(NC(=O)Cc1ccc(C(=O)c2ccccc2)cc1)C(=O)O (centres undefined) | > 100 µM (inactive) | > 100 µM (inactive) | > 100 µM (inactive) | > 100 µM (inactive) | > 100 µM (inactive) | > 100 µM (inactive) | > 100 µM (inactive) | > 100 µM (inactive) | > 100 µM (inactive) | > 100 µM (inactive) | > 100 µM (inactive) | > 100 µM (inactive) | > 100 µM (inactive) | > 100 µM (inactive) | > 100 µM (inactive) | > 100 µM (inactive) | > 100 µM (inactive) |  | > 100 µM (inactive) |  |
| [N-]=[N+]=CC(=O)OC(CCl)CCl |  | > 100 µM (inactive) | > 100 µM (inactive) | > 100 µM (inactive) |  | > 100 µM (inactive) | > 100 µM (inactive) |  | > 100 µM (inactive) | > 100 µM (inactive) | > 100 µM (inactive) | > 100 µM (inactive) | > 100 µM (inactive) | > 100 µM (inactive) | > 100 µM (inactive) | > 100 µM (inactive) | > 100 µM (inactive) | > 100 µM (inactive) | > 100 µM (inactive) | 37.5 µM (inactive) |
| CCCCCCCCCCCCCCCCCc1cccc(OCOCCOC)c1CO | > 100 µM (inactive) | > 100 µM (inactive) | > 100 µM (inactive) | > 100 µM (inactive) | > 100 µM (inactive) | > 100 µM (inactive) | > 100 µM (inactive) | > 100 µM (inactive) | > 100 µM (inactive) |  | > 100 µM (inactive) | > 100 µM (inactive) | > 100 µM (inactive) | > 100 µM (inactive) | > 100 µM (inactive) | > 100 µM (inactive) | > 100 µM (inactive) | > 100 µM (inactive) | > 100 µM (inactive) | > 100 µM (inactive) |
| CC(=O)OC1CC(O)CC2=CCC3C4CCC(C(C)(O)C(O)CC5COC(=O)C5C)C4(C)CCC3C21C (centres undefined) | > 25 µM (inactive) | 8.59 µM (inactive) | > 25 µM (inactive) | > 25 µM (inactive) | 8.43 µM (inactive) | > 25 µM (inactive) | > 25 µM (inactive) |  | > 25 µM (inactive) | > 25 µM (inactive) | > 25 µM (inactive) | > 25 µM (inactive) | > 25 µM (inactive) | > 25 µM (inactive) | 4.39 µM (inactive) | > 25 µM (inactive) | > 25 µM (inactive) | 14.6 µM (inactive) | 18.4 µM (inactive) | 13.6 µM (inactive) |
| Cn1cnc2nc(Cl)nc(NC(C)(C)C(C)(C)O)c21 | > 100 µM (inactive) | > 100 µM (inactive) | > 100 µM (inactive) | > 100 µM (inactive) | > 100 µM (inactive) | > 100 µM (inactive) | > 100 µM (inactive) |  | > 100 µM (inactive) |  | > 100 µM (inactive) | > 100 µM (inactive) | > 100 µM (inactive) | > 100 µM (inactive) | > 100 µM (inactive) | > 100 µM (inactive) | > 100 µM (inactive) | > 100 µM (inactive) | > 100 µM (inactive) | > 100 µM (inactive) |
| CN(C)CCNC1=C(Cl)C(=O)c2c(O)ccc(O)c2C1=O | 2.58 µM (inactive) | 2.02 µM (inactive) | 1.85 µM (inactive) | 2.12 µM (inactive) |  | 1.72 µM (inactive) | 1.93 µM (inactive) | 3.12 µM (inactive) | 2.08 µM (inactive) | 1.94 µM (inactive) | 1.6 µM (inactive) | 3.39 µM (inactive) | 4.34 µM (inactive) | 1.79 µM (inactive) | 2.38 µM (inactive) | 2.33 µM (inactive) | 2.17 µM (inactive) | 2.65 µM (inactive) | 2.76 µM (inactive) |  |
| O=c1[nH]c(=O)n(C2OC(CO)C(O)C2O)cc1OCc1ccccc1 (centres undefined) | > 87.3 µM (inactive) | > 100 µM (inactive) | > 100 µM (inactive) | > 100 µM (inactive) | > 100 µM (inactive) | > 100 µM (inactive) | > 64.7 µM (inactive) |  | > 100 µM (inactive) |  | > 100 µM (inactive) | > 100 µM (inactive) | > 57.4 µM (inactive) | > 100 µM (inactive) | > 52.8 µM (inactive) | > 100 µM (inactive) | > 100 µM (inactive) | > 57.9 µM (inactive) | > 73.3 µM (inactive) | > 50.1 µM (inactive) |
| CC(C)=CC1C[C@H](C2CC=C3C2(C)CCC2[C@@]3(C)C(=O)CC3[C@]2(C)C=CC(=O)[C@]3(C)CO)CO1 (some centres undefined) | 20.8 µM (inactive) | 18.6 µM (inactive) | 4.15 µM (inactive) | 13 µM (inactive) | 23.9 µM (inactive) | 13.9 µM (inactive) | 14 µM (inactive) |  | 5.96 µM (inactive) |  | 13.6 µM (inactive) | 8.81 µM (inactive) | 10.4 µM (inactive) | 16.3 µM (inactive) | 2.92 µM (inactive) | 25.8 µM (inactive) | 16.6 µM (inactive) | 3.15 µM (inactive) | 4.34 µM (inactive) | 3.02 µM (inactive) |
| O=C1Nc2ccccc2N/C1=C\C(=O)c1ccccc1O | > 100 µM (inactive) | > 100 µM (inactive) | > 100 µM (inactive) | > 100 µM (inactive) | > 100 µM (inactive) | > 100 µM (inactive) | > 100 µM (inactive) |  | > 100 µM (inactive) |  | > 100 µM (inactive) | > 100 µM (inactive) | > 100 µM (inactive) | > 100 µM (inactive) | > 100 µM (inactive) | > 100 µM (inactive) | > 100 µM (inactive) | > 100 µM (inactive) | > 100 µM (inactive) | > 100 µM (inactive) |
| O=C1C(Cl)=C(NCCN2CCOCC2)C(=O)c2c(O)ccc(O)c21 | 2.12 µM (inactive) | 2.36 µM (inactive) | 2.03 µM (inactive) | 1.87 µM (inactive) | 1.74 µM (inactive) | 2.11 µM (inactive) | 1.5 µM (inactive) | 2.09 µM (inactive) | 2.01 µM (inactive) | 1.71 µM (inactive) | 1.88 µM (inactive) | 6.62 µM (inactive) |  | 1.89 µM (inactive) |  | 8.85 µM (inactive) | 2.69 µM (inactive) |  | 2.06 µM (inactive) |  |
| Cc1c(Cl)cccc1NC(=O)C(=O)C1C(=O)CC(C)(C)CC1=O | > 100 µM (inactive) | > 100 µM (inactive) | > 100 µM (inactive) | > 100 µM (inactive) | > 100 µM (inactive) | > 100 µM (inactive) | > 100 µM (inactive) |  | > 100 µM (inactive) |  | > 100 µM (inactive) | > 100 µM (inactive) | > 100 µM (inactive) | > 100 µM (inactive) | > 100 µM (inactive) | > 100 µM (inactive) | > 100 µM (inactive) | > 100 µM (inactive) | > 100 µM (inactive) | > 100 µM (inactive) |
| COc1ccc(CN[C@H]2CCc3cc(OC)c(OC)c(OC)c3-c3ccc(SC)c(=O)cc32)c(OC)c1OC | 0.0459 µM (active) | 0.132 µM (active) | 0.0205 µM (active) | 0.0296 µM (active) | 0.0452 µM (active) | 0.0811 µM (active) | 0.0234 µM (active) |  | 0.037 µM (active) |  | 0.135 µM (active) | 0.0296 µM (active) | 0.0181 µM (active) | 0.0202 µM (active) | 0.0266 µM (active) | 0.0849 µM (active) | 0.0681 µM (active) | 0.0352 µM (active) | 0.0346 µM (active) | 0.0167 µM (active) |
